Values of other authors in patent US8142802B2, “Insecticidal composition with enhanced synergistic activity” (priority 2003, dated 2012).

Conditions: at room temperature

SMILES: COP(=O)(NC(C)=O)SC (stereo not shown) [Acephate]
- solubility in acetone: > 100 g/L
- solubility in aromatic solvents: < 50 g/L
- solubility in ethanol: > 100 g/L
- solubility in water: about 650 g/l
